Test results taken from patent US20110082130A1 (LIGAND PHARMACEUTICALS, INC., priority 2006, published 2011).

Biological target: T1, chimeric human H3 receptor (Homo sapiens, UniProt Q9Y5N1)
T1 construct: made in house; host or cells: Sf9 insect cells (baculovirus); P2 membrane preparation
Experiment: Chimeric human H3 receptor screening GTP binding assay (inhibition of histamine-stimulated GTP-gamma35S binding, Example 8)
Type: biochemical
Conditions: Table II "Ki", symbol †, 4 μM of the compound, 1 μM histamine, read-out: percent inhibition of the signal obtained with 1 μM histamine
In short: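 Values are percent inhibition of 1 μM histamine-stimulated GTP-gamma35S […] binding, with non-specific binding (10 μM GTP-gammaS) subtracted, by compounds tested at 4 μM. Membranes (35 μg) from Sf9 cells expressing chimeric human H3 with G-protein subunits were used in Tris pH 7.4 buffer with 10 μM GDP. Incubation lasted 60 min at room temperature, followed by filtration and scintillation counting.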

T1 sequence (Q9Y5N1 with tags, fused parts or gaps): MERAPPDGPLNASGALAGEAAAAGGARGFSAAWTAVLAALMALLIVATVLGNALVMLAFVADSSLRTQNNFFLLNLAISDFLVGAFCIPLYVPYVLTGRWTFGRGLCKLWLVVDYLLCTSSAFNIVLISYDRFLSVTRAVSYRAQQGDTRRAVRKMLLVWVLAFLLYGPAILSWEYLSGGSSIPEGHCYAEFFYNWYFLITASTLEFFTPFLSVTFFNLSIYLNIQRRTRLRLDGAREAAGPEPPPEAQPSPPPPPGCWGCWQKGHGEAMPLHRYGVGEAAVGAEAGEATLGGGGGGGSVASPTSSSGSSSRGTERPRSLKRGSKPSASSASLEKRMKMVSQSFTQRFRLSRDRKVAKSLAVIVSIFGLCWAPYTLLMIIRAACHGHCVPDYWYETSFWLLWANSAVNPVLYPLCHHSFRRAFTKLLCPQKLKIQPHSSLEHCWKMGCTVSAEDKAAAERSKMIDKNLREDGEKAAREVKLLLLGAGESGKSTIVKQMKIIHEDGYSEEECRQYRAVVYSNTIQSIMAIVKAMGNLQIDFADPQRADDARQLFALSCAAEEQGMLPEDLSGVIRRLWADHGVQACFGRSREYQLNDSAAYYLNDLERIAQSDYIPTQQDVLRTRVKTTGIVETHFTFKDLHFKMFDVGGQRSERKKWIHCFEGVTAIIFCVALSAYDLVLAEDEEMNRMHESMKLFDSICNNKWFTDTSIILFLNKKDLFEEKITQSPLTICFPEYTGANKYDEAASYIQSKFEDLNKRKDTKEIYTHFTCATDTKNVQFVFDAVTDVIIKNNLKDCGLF

Row | inhibition at 4 µM [%] | Compound
1 | ≥ 90 | Cc1cc(F)ccc1-c1ccc2c(c1)CCN(CC(=O)N1CCN(C3CCC3)CC1)C2 [Compound 626, 2-[2-(4-cyclobutylpiperazin-1-yl)-2-oxoethyl]-6-(4-fluoro-2-methylphenyl)-1,2,3,4-tetrahydroisoquinoline]
2 | ≥ 90 | COCC(C)Nc1ccc2c(n1)CCN(CC(=O)N1CCN(C3CCC3)CC1)C2 (stereo not drawn) [Compound 665, 6-[2-(4-cyclobutylpiperazin-1-yl)-2-oxoethyl]-N-(2-methoxy-1-methylethyl)-5,6,7,8-tetrahydro-1,6-naphthyridin-2-amine]
3 | ≥ 90 | CC(C)OCCNc1ccc2c(n1)CCN(CC(=O)N1CCN(C3CCC3)CC1)C2 [Compound 668, 6-[2-(4-cyclobutylpiperazin-1-yl)-2-oxoethyl]-N-(2-isopropoxyethyl)-5,6,7,8-tetrahydro-1,6-naphthyridin-2-amine]
4 | ≥ 90 | CCCOCCNc1ccc2c(n1)CCN(CC(=O)N1CCN(C3CCC3)CC1)C2 [Compound 669, 6-[2-(4-cyclobutylpiperazin-1-yl)-2-oxoethyl]-N-(2-propoxyethyl)-5,6,7,8-tetrahydro-1,6-naphthyridin-2-amine]
5 | ≥ 90 | COC1CCCN(c2ccc3c(n2)CCN(CC(=O)N2CCN(C4CCC4)CC2)C3)C1 (stereo not drawn) [Compound 671, 6-[2-(4-cyclobutylpiperazin-1-yl)-2-oxoethyl]-2-(3-methoxypiperidin-1-yl)-5,6,7,8-tetrahydro-1,6-naphthyridine]
6 | ≥ 90 | CN(CC#N)c1ccc2c(n1)CCN(CC(=O)N1CCN(C3CCC3)CC1)C2 [Compound 680, [{6-[2-(4-cyclobutylpiperazin-1-yl)-2-oxoethyl]-5,6,7,8-tetrahydro-1,6-naphthyridin-2-yl}(methyl)amino] acetonitrile]
